Results reported in ChEMBL document CHEMBL3351728, “3-alkoxy-pyrrolo[1,2-b]pyrazolines as selective androgen receptor modulators with ideal physicochemical properties for transdermal administration” (J Med Chem, 2014).
≈ marks a conversion by molar mass, not a printed value. Calls of active or inactive are those of the source. No cut-off for these calls is given here.

How the values were obtained:
[1] = system: Zone of skin; assay: Skin permeability in human cadaver skin in Franz diffusion cell system; assay type: ADME
[2] = Lipophilicity, logP of the compound; assay type: physicochemical; settings: octanol/water
[3] = target: T1, Androgen receptor (Homo sapiens) (UniProt P10275); assay: Agonist activity at human androgen receptor expressed in mouse C2C12 cells by androgen-specific response element-driven luciferase reporter gene assay relative to DHT; assay type: cell-based
T1 sequence (whole entry): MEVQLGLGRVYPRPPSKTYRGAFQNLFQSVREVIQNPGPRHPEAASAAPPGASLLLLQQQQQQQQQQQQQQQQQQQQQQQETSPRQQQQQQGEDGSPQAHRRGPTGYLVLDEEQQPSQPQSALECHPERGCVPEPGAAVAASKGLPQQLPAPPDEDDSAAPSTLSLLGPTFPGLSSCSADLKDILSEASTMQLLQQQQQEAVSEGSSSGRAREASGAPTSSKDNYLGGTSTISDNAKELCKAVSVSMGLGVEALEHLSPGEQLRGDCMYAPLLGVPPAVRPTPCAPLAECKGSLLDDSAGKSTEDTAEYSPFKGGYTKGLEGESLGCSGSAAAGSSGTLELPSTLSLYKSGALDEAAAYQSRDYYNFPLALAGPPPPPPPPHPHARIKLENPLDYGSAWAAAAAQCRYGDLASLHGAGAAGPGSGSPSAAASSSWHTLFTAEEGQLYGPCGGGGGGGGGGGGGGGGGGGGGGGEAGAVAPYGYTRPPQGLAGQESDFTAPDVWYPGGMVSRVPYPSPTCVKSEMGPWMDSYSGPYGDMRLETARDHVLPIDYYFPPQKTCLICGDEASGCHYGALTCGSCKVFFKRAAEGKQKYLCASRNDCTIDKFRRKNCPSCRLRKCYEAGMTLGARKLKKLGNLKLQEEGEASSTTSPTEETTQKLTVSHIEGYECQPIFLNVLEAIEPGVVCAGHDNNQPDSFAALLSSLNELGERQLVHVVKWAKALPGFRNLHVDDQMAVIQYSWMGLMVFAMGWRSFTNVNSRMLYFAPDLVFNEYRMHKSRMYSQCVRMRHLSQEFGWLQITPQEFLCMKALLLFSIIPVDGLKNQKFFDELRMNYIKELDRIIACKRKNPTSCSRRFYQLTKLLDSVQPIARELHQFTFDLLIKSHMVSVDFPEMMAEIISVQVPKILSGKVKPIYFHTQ

[4] = Thermodynamic solubility of the compound at pH 7.4; assay type: physicochemical; settings: buffer, read-out: Therm_solubility
[5] = target: T2, Androgen receptor (Homo sapiens, UniProt P10275)
T2 sequence (P10275 whole entry): T1 sequence (whole entry)

[6] = system: Rattus norvegicus; assay: Androgenic activity in orchidectomized rat assessed as stimulation of prostate weight treated subcutaneously once daily for 14 days by Hershberger assay; assay type: organism-based; settings: Prostate gland, sc, 336 h
[7] = system: Rattus norvegicus; assay: Anabolic activity in orchidectomized rat assessed as stimulation of bulbocavernosus/levator ani muscle weight treated subcutaneously once daily for 14 days by Hershberger assay; assay type: functional; settings: sc, 336 h
[8] = Skin drug retention by silicone and isopropyl myristate (70:30) containing artificial membranes based skin PAMPA method
[9] = Skin permeability by silicone and isopropyl myristate (70:30) containing artificial membranes based skin PAMPA method; assay type: ADME

Compound	Emax [3]	EC50 [5]	also measured
CO[C@@H]1C(c2ccc(C#N)c(Cl)c2C)=NN2CC[C@@H](O)[C@@H]12	86.7%	0.4 nM	Jss [1]: 0.2 ug/cm2.hr; logP [2]: 1.9; solubility thermodynamic [4]: 250 µg/mL (≈ 818 µM)
CO[C@@H]1C(c2ccc(C#N)c(Cl)c2C)=NN2CC[C@H](F)[C@@H]12	93.5%	1.5 nM	
CO[C@@H]1C(c2ccc(C#N)c(Cl)c2C)=NN2CC(=O)C[C@@H]12	93%	26 nM	
CCC(=O)O[C@H]1CC[C@H]2[C@@H]3CCC4=CC(=O)CC[C@]4(C)[C@H]3CC[C@]12C [TESTOSTERONE PROPIONATE]			ED50 [6]: 0.31 mg/kg; ED50 [7]: 0.29 mg/kg
CO[C@@H]1C(c2ccc(C#N)c(Cl)c2C)=NN2C[C@H](O)C[C@@H]12	75%	9.7 nM	
CO[C@@H]1C(c2ccc(C#N)c(Cl)c2C)=NN2CC(F)(F)C[C@@H]12	100%	0.3 nM	Jss [1]: 0.06 ug/cm2.hr; logP [2]: 3.2; solubility thermodynamic [4]: 10 µg/mL (≈ 30.7 µM); Drug uptake [8]: Active; permeability [9]: permeable
CO[C@H]1CCN2N=C(c3ccc(C#N)c(Cl)c3C)[C@@H](OC)[C@H]12	82%		
Cc1c(C2=NN3CC[C@H](O)[C@H]3[C@@H]2O)ccc(C#N)c1Cl	55%	978 nM	
